Laboratory results: patent publication US12509460B2 (Skyhawk Therapeutics, Inc., priority 2019, dated 2025)
Where two headings read alike, the source gives them in different places.

Assays:
[1] = system: MDR1-MDCK cell monolayers; settings: dog, MDCK-MDR1, 120 min, 5 μM, pH 7.4
MDR1 (P-gp) = assay: in vitro; settings: dog, MDCK-MDR1, pH 7.4
MDR1 = assay: in vitro; settings: dog, MDCK-MDR1, pH 7.4
[2] = system: mHTT protein in GM04724 (CAG 70/20) Huntington's disease patient lymphoblast cells; assay: mHTT protein assay, 2B7-MW1 assay via Mesoscale Discovery (MSD); assay type: cell-based, human
How it was run: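 Signal from the 2B7-MW1 antibody pair on MSD, rising with polyQ length and smaller HTT fragments, measured mHTT after 48 h compound exposure (0.6 nM–10 μM) in GM04724 cells. A parallel replicate plate gave CellTiter Glo viability.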

[3] = system: SMN protein in spinal muscular atrophy (SMA) patient fibroblasts (GM03813, Coriell); assay: SMN protein assay, Mesoscale Discovery (MSD); assay type: cell-based, human; settings: for EC50: read-out: SMN2 protein EC50
How it was run: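 Absolute SMN levels were quantified by MSD against an SMN protein standard curve (1 μg/ml to 19.5 pg/ml) run on each plate. Samples were lysates of GM03813 patient fibroblasts (7000 cells/well) treated 48 hours with compound doses from 2.5 μM down to 0.6 nM.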

[4] = GM04724 (CAG 70/20) Huntington's disease patient lymphoblasts
[5] = SMA patient fibroblasts (GM03813), 48 hours
[6] = GM04724 Huntington's disease patient lymphoblasts
[7] = SMA patient fibroblasts GM03813, 48 hours, MSD

| Compound | MDCK-MDR1: % Recov A-B [1] | MDCK-MDR1: % Recov B-A [1] | Papp A→B at 120 min, 5 μM (MDR1 (P-gp)) | Papp B→A at 120 min, 5 μM (MDR1 (P-gp)) | efflux ratio at 120 min, 5 μM (MDR1) | mHTT protein EC50 [2, 4] | SMN2 protein EC50 [3, 5] | EC50 [2, 6] | SMN2 protein EC50 [3, 7] | mHTT protein EC50 [2, 6] | EC50 [3, 7] | EC50 [3, 5] |
| --- | --- | --- | --- | --- | --- | --- | --- | --- | --- | --- | --- | --- |
| Cc1nc2cc(-c3ccc(N(C)[C@@H]4C[C@H]5CC[C@@H]([C@@H]4F)N5C)nn3)c(O)cc2c(=O)n1CC(F)(F)F (single isomer, unassigned) [Compound 130A] | 105% | 116% | 0.67 ×10⁻⁶ cm/s | 75.4 ×10⁻⁶ cm/s | 113 | E (501 ≤ E ≤ 10.000) | E (501 ≤ E ≤ 10.000) | – | – | – | – | – |
| Cc1nc2cc(-c3ccc(N(C)[C@H]4C[C@@H]5CC[C@H]([C@H]4F)N5C)nn3)c(O)cc2c(=O)n1CC(F)(F)F (single isomer, unassigned) [Compound 130B] | 107% | 110% | 0.77 ×10⁻⁶ cm/s | 72.2 ×10⁻⁶ cm/s | 94 | E (501 ≤ E ≤ 10.000) | E (501 ≤ E ≤ 10.000) | – | – | – | – | – |
| Cc1nc2cc(O)c(-c3ccc(N(C)[C@@H]4C[C@H]5CC[C@H](N5)C4F)nn3)cc2o1 (stereo in doubt) [Compound 40A, 6-(6-(((1S,2R,3R,5R)-2-fluoro-8-azabicyclo[3.2.1]octan-3-yl)(methyl)amino)pyridazin-3-yl)-2-methylbenzo[d]oxazol-5-ol] | 62% | 92% | 3.68 ×10⁻⁶ cm/s | 57.9 ×10⁻⁶ cm/s | 16 | – | – | 101 to 500 nM | E (501 ≤ E ≤ 10.000) | – | – | – |
| CN(c1ccc(-c2ccc(-n3ccnc3)cc2O)nn1)[C@H]1C[C@@H]2CC(F)(F)[C@H](C1)N2 [Compound 13B, 2-(6-(((1R,3S,5S)-6,6-difluoro-8-azabicyclo[3.2.1]octan-3-yl)(methyl)amino)pyridazin-3-yl)-5-(1H-imidazol-1-yl)phenol] | 90% | 97% | 9.96 ×10⁻⁶ cm/s | 55.7 ×10⁻⁶ cm/s | 6 | – | – | 101 to 500 nM | E (501 ≤ E ≤ 10.000) | – | – | – |
| CCc1cn(-c2ccc(-c3ccc(N(C)[C@H]4C[C@@H]5CC(F)(F)[C@H](C4)N5)nn3)c(O)c2)cn1 [Compound 18B, 2-(6-(((1R,3S,5S)-6,6-difluoro-8-azabicyclo[3.2.1]octan-3-yl)(methyl)amino)pyridazin-3-yl)-5-(4-ethyl-1H-imidazol-1-yl)phenol] | 55% | 69% | 8.37 ×10⁻⁶ cm/s | 35.6 ×10⁻⁶ cm/s | 4 | – | – | 101 to 500 nM | E (501 ≤ E ≤ 10.000) | – | – | – |
| CC(=O)N(C)c1ccc(-c2ccc(N(C)[C@@H]3C[C@H]4CC[C@H](N4)[C@@H]3F)nn2)c(O)c1 [Compound 35A, N-(4-(6-(((1S,2S,3R,5R)-2-fluoro-8-azabicyclo[3.2.1]octan-3-yl)(methyl)amino)pyridazin-3-yl)-3-hydroxyphenyl)-N-methylacetamide] | 102% | 103% | 0.21 ×10⁻⁶ cm/s | 41 ×10⁻⁶ cm/s | 197 | – | – | – | E (501 ≤ E ≤ 10.000) | E (501 ≤ E ≤ 10.000) | – | – |
| CN(c1ccc(-c2cc3cccnc3cc2O)nn1)[C@H]1C[C@@H]2CC(F)(F)[C@H](C1)N2 [Compound 45B, 6-(6-(((1R,3S,5S)-6,6-difluoro-8-azabicyclo[3.2.1]octan-3-yl)(methyl)amino)pyridazin-3-yl)quinolin-7-ol] | 95% | 111% | 10.2 ×10⁻⁶ cm/s | 45.3 ×10⁻⁶ cm/s | 4 | – | – | – | E (501 ≤ E ≤ 10.000) | E (501 ≤ E ≤ 10.000) | – | – |
| O=C(c1cc2cc(O)c(-c3ccc(N(C4CC4)[C@@H]4C[C@H]5CC[C@H](N5)[C@@H]4F)nn3)cc2o1)N1CCC1 [Compound 57A, azetidin-1-yl(6-(6-(cyclopropyl((1S,2S,3R,5R)-2-fluoro-8-azabicyclo[3.2.1]octan-3-yl)amino)pyridazin-3-yl)-5-hydroxybenzofuran-2-yl)methanone] | 89% | 104% | 0.78 ×10⁻⁶ cm/s | 63.2 ×10⁻⁶ cm/s | 80 | – | – | – | E (501 ≤ E ≤ 10.000) | E (501 ≤ E ≤ 10.000) | – | – |
| CN(c1ccc(-c2cc3ncn(CC(F)(F)F)c(=O)c3cc2O)nn1)[C@H]1C[C@@H]2CC(F)(F)[C@H](C1)N2 [Compound 59B, 7-(6-(((1R,3S,5S)-6,6-difluoro-8-azabicyclo[3.2.1]octan-3-yl)(methyl)amino)pyridazin-3-yl)-6-hydroxy-3-(2,2,2-trifluoroethyl)quinazolin-4(3H)-one] | 107% | 101% | 2.97 ×10⁻⁶ cm/s | 84.2 ×10⁻⁶ cm/s | 28 | – | – | – | E (501 ≤ E ≤ 10.000) | E (501 ≤ E ≤ 10.000) | – | – |
| CN(c1ccc(-c2cc(C#N)c(F)cc2O)nn1)[C@@H]1C[C@H]2CC[C@H](N2)[C@@H]1F [Compound 72A, 2-fluoro-5-(6-(((1S,2S,3R,5R)-2-fluoro-8-azabicyclo[3.2.1]octan-3-yl)(methyl)amino)pyridazin-3-yl)-4-hydroxybenzonitrile] | 88% | 77% | 11.6 ×10⁻⁶ cm/s | 39.9 ×10⁻⁶ cm/s | 3 | – | – | – | E (501 ≤ E ≤ 10.000) | E (501 ≤ E ≤ 10.000) | – | – |
| CN(C)C(=O)c1cc2cc(O)c(-c3ccc(N(C4CC4)[C@@H]4C[C@H]5CC[C@H](N5)[C@@H]4F)nn3)cc2o1 [Compound 86A, 6-(6-(cyclopropyl((1S,2S,3R,5R)-2-fluoro-8-azabicyclo[3.2.1]octan-3-yl)amino)pyridazin-3-yl)-5-hydroxy-N,N-dimethylbenzofuran-2-carboxamide] | 93% | 90% | 1.05 ×10⁻⁶ cm/s | 62.5 ×10⁻⁶ cm/s | 60 | – | – | – | E (501 ≤ E ≤ 10.000) | E (501 ≤ E ≤ 10.000) | – | – |
| CN(c1ccc(-c2cc3cnccc3cc2O)nn1)[C@@H]1C[C@H]2CC[C@@H]([C@@H]1F)N2C [Compound 93A, 7-(6-(((1S,2S,3R,5R)-2-fluoro-8-methyl-8-azabicyclo[3.2.1]octan-3-yl)(methyl)amino)pyridazin-3-yl)isoquinolin-6-ol] | 50% | 70% | 5.27 ×10⁻⁶ cm/s | 17.9 ×10⁻⁶ cm/s | 3 | – | – | – | – | E (501 ≤ E ≤ 10.000) | 101 to 500 nM | – |
| Cc1cc(=O)c2cc(O)c(-c3ccc(N(C)[C@@H]4C[C@H]5CC[C@@H]([C@@H]4F)N5C)nn3)cc2o1 [Compound 99A, 7-(6-(((1S,2S,3R,5R)-2-fluoro-8-methyl-8-azabicyclo[3.2.1]octan-3-yl)(methyl)amino)pyridazin-3-yl)-6-hydroxy-2-methyl-4H-chromen-4-one] | 114% | 91% | 2 ×10⁻⁶ cm/s | 36.3 ×10⁻⁶ cm/s | 18 | E (501 ≤ E ≤ 10.000) | – | – | – | – | – | 101 to 500 nM |
